These are literature values, as cited in patent publication US20230338413A1, “ORAL DELIVERY OF HEPARINS” (GUANGZHOU DAZHOU BIOMEDICINE LTD., priority 2021, published 2023).

Turning to `O=C([O-])CCCCCCCNC(=O)c1ccccc1O.[Na+]` [SNAC, sodium N-(8-(2-hydroxybenzoyl)amino)caprylate], under “SNAC by itself, initial clinical studies”, the Effects on coagulation result is on record as “no effects on coagulation”. Further, for the setting “human subjects, single oral dose: 30,000 USP Heparin Units alone or SNAC alone 1.4 to 10.5 g”, the “Measurements of anticoagulation (aPTT, TFPI and anti-Factors IIa and Xa levels)” value is “did not change”.
